Residue numbers refer to the chain shown, from its start. Converted amounts (≈) assume the structure as drawn. Read-outs that look alike come from different tables or passages of the source.
Tests used:
IDH2 WT = target: T1, IDH2 WT (Homo sapiens, UniProt P48735); assay: Wild type IDH2 enzyme assay, diaphorase/resazurin coupled
T1 sequence (P48735 40-452): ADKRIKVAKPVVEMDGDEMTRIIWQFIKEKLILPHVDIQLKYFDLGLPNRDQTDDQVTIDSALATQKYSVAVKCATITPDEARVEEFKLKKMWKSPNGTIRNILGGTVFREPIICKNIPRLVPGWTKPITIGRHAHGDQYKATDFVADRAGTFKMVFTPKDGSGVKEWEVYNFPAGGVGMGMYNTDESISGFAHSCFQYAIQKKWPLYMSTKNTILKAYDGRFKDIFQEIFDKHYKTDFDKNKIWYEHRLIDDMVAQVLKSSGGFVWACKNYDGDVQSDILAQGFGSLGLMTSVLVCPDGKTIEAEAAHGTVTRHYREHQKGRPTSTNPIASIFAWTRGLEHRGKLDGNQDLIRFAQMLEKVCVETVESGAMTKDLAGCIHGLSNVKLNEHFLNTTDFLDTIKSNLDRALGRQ

[1] = Microsomal metabolic stability, human; assay type: in vitro ADME; details: pH 7.4; human liver microsomes
[2] = Human plasma protein binding (rapid equilibrium dialysis, Cyprotex); assay type: in vitro ADME; details: for fraction unbound at 4 h, 5 µM: human, plasma, human plasma
hERG channel = target: T2, hERG channel (Homo sapiens, UniProt Q12809); assay: hERG FluxOR-based thallium flux assay; assay type: cell-based; details: In Vitro Toxicity; for Emax: human, U2OS cells transduced with hERG-BacMam virus
T2 construct: host or cells: U2OS cells (ATCC)
T2 sequence (Q12809 whole entry): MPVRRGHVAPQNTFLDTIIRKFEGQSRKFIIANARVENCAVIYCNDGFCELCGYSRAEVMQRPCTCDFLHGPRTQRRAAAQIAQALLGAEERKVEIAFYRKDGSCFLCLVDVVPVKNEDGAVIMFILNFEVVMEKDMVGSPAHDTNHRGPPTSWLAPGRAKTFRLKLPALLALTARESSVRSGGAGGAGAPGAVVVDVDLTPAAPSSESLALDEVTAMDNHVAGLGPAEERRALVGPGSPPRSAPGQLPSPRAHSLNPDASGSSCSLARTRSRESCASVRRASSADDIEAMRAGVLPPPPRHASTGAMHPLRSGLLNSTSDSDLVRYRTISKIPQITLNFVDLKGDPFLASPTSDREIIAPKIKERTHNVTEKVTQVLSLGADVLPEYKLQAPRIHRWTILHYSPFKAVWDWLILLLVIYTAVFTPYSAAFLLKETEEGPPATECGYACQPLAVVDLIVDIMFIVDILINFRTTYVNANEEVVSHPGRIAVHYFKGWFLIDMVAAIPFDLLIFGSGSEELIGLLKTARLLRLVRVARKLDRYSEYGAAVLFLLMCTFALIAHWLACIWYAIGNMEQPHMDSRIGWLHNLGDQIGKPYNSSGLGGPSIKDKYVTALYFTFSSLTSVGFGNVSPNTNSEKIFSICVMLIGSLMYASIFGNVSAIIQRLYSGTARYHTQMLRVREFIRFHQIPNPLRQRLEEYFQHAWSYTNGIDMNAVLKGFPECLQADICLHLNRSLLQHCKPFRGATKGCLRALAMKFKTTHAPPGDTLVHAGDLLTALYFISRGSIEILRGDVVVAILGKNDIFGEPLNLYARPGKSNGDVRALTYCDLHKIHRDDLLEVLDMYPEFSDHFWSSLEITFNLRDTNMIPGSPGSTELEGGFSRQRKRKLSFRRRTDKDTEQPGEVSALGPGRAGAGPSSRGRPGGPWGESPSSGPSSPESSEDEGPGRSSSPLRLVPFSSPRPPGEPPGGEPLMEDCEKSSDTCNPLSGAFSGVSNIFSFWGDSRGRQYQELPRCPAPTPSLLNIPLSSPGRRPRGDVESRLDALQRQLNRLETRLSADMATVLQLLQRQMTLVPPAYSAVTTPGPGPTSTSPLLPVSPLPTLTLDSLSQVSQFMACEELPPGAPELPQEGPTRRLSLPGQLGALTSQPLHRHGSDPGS

in vitro = details: human, Caco-2
R172Q mIDH2 = target: T3, R172Q mIDH2 (Homo sapiens, UniProt P48735, R172Q); assay: mIDH2-R172Q enzyme assay (Reaction Biology), diaphorase/resazurin coupled; details: for Emax: read-out: IDH2 R172Q % EMax
T3 sequence (P48735 40-452 R172Q): T1 sequence (P48735 40-452) with R133Q

[3] = High-throughput kinetic solubility (µSOL), pH 7.4; assay type: physicochemical; details: aqueous solution pH 7.4, pH 7.4, aqueous buffer, kinetic from dmso stock; read-out: HT Kinetic Solubility, Solubility
Method: High-Throughput kinetic solubility test assay
Pion’s patented µSOL assay for kinetic solubility determination was used. In this assay, the classical saturation shake- flask solub ility method was adapted to a 96-well microtiter plate format and a co-solvent method with n- propanol as the […] was utilized. Test compounds were prepared in 10 mM DMSO solutions (45 µ L), and diluted with the co-solve nt to a final drug conce ntration of […]
Samples are incubated at room temperature for 6 hrs t o achieve equilibrium. The samples were then filtered to remove any precipitate formed. The concentrat ion of the compound in the filtrate was measured by UV ab sorbance. […]
used for quantitation of unknown drug concent ration in filtrate. Spectroscopically pure 1- Propanol was used as acosolvent to suppress precipitation in the reference

[4] = High-throughput PAMPA (GIT), pH 7.4; assay type: in vitro ADME; details: read-out: HT PAMPA Permeability
Excerpt: In Vitro Physicochemical and Drug Metabolism Studies:
High-Throughput PAMPA assay
The stirring double- sin k PAMPA method patented by pION Inc. (Billeri ca, MA) was employed to determine the permeability of compounds via PAMPA passive diffusion. The PAMPA lipid membrane consisted of an artificial membrane of a proprietary lipid mixture and dodecane (Pion Inc.), optimized to predict gastrointestinal tract (GIT) passive diffusion permeability, was immobilized on a plastic matrix of a 96 well “donor” filter plate placed above a 96 well “a cceptor” plate. A pH 7.4 solution was used in both donor and acceptor wells. The test articles, stocked in 10 mM DMSO solutions, were diluted to 0.05 mM in aqueous buffer (pH 7.4) , and the concentration of DMSO was 0.5% in the final solution. During the 30-min permeation period at room temperature, the test samples in the donor compartment were stirred using the Gutbox te chnology (Pion Inc.) to reduce the unstirred water layer. The test article concentrations in the donor and acceptor compartments were measured using an UV plate reader (Nano Quant, Infinite 200 […]
PRO, Tecan Inc., Männedorf, Switzerland). Permeability calculations were performed using Pion Inc. software and were expressed in units of 10-6 cm/s. […]

[5] = Microsomal metabolic stability, mouse; assay type: in vitro ADME; details: pH 7.4; mouse liver microsomes
IDH1 WT = IDH1 WT (Homo sapiens, UniProt O75874); assay: Wild type IDH1 enzyme assay, diaphorase/resazurin coupled; details: for Emax: read-out: IDH1 WT % EMax
IDH1 WT, sequence (O75874 whole entry): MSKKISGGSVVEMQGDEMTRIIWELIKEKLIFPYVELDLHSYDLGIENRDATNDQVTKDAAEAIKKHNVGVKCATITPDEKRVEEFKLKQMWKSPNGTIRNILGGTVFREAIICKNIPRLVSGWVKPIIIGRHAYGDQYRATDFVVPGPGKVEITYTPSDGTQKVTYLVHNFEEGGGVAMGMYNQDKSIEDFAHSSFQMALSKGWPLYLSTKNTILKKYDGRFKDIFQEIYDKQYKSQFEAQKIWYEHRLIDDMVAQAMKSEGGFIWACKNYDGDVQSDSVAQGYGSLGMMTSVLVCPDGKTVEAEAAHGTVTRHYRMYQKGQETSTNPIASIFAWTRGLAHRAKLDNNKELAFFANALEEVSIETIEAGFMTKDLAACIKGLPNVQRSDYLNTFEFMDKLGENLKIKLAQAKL

human hepatocytes = assay: Human hepatocyte cytotoxicity (CellTiter-Glo, 72 hr); details: Homo sapiens, Hepatocyte, read-out: Human Hepatocytes EC50
[6] = as above; details: both, human, cryopreserved human hepatocytes
[7] = Microsomal metabolic stability, rat; assay type: in vitro ADME; details: pH 7.4; rat liver microsomes
JJ012 (R132G) cells = assay: 2-HG production, monolayer (2D), mass spectrometry, JJ012; assay type: cell-based; details: Homo sapiens, mass spec; for Emax: read-out: 2D Cellular 2HG Production (Mass Spec) JJ012 (R132G) % EMax; for EC50: read-out: 2D Cellular 2HG Production (Mass Spec) JJ012 (R132G) EC50
Method: (§1) (Supplementary Table 2). Inhibition of the target was assessed by quantitative measurement of 2-HG levels in extracellular media of monolayer (or 2-dimentional, 2D) cultures following incubation (48 hrs) with inhibitors. […]
(§2) treated 96-well plates (Corning) at a density of 8000 cells/well/100 μL . Plates were sealed with gas permeable membranes (Research Products International Corp.) and incubated at 37°C, 5% CO2, 90% RH for 24 hr. Growth media was subsequently aspirated and replaced with 100 μL of a solution of growth media cont aining either vehicle DMSO or indicated mIDH1 inhibitor. Each compound was tested as an 8-point dilution series ranging from 5 μM to 2.3 nM. After 48 hr treatment, 75 μL of the exhausted media was collected and snap frozen on dry ice. Samples were analyzed by LC-MS for 2- HG concentrations using Rapidfire / Mass Spectrometry (Quintara) (4) . Remaining cells were assessed for viability by adding 100 μL of fresh media and 50 μL of CellTiter-Glo reagent (Promega) as per manufacturer instructions. Luminescence was read using a Vi ewLux High-throu ghpu t CCD imager (PerkinElmer) equipped with clear filters.

[8] = test system: JJ012 (R132G) 3D cellular spheroids; assay: 2-HG production, spheroids (3D), JJ012; assay type: cell-based; details: Homo sapiens; 3D spheroid, mass spec
Excerpt: (§3) To evaluate the effect of mIDH1 inhibitors in more relevant models of solid tumors, we adapted a 3-dimensional (3D) multicellular tumor spheroid assay to monitor spheroid formation and 2-HG production. Small molecules can have diminished efficacy in multicellular tumor spheroid models due to limited penetration and the heterogeneous nature of the 3D tumor spheroid[39],[40]. We began by testing the 6 aforementioned cell lines for their ability to form spheroids in ultra-low attachment plates at varying cell concentrations (1000–5000 cells/well). […] Overall, spheroids produced less extracellular 2-HG than cells cultured in monolayer (Fig. 7B).
(§4) Using these simple 3D models of solid tumors, we assessed the ability of inhibitors to reduce 2-HG production.
(§5) 2-HG production: Cells grown as spheroids (3D)
(§6) (RBE) cells/well/150 μ L to form spheroids. Of note, we were not able to obtain spheroids using SNU1079 cells. Plates were sealed with gas permeable membranes, centrifuged at 40 rcf for 1 min, and incubated at 37°C, 5% CO2, 90% RH for 96 (HT108 0, U87 and JJ01 2) or 4 8 (RBE) h r. Cells were washed (by remo ving 10 0 μL of exhausted media and re placing it with 100 μL of growth media, twice) and treated with 50 μL of a solution of media containing the indicated compounds. Each compound was tested as an 8-point dilution series ranging from 5 μM to 2.3 nM.
(§7) After 96 hr of t reatment, 100 μL of the exhausted media was collected and snap frozen on dry ice. Samples were analyzed by LC -MS for 2- HG concentrations using Rapidfire /Mass Spectrometry (Quintara) ( 4) . Plates were first imaged on the Celigo Imaging Cytometer (Ne xcelom Bioscience) to quantify area of each spheroid. Cell viability was subsequently measured using the CellTiter-Glo assay with some modifications: 50 μL of a solution of CellTiter-Glo reagent containing a final concentration of 0.025 % Trypsin (Thermo Sci entific) was added to each well and plates were shaken at 500 rpm for 30 min before reading.

RBE (R132S) cells = assay: 2-HG production, monolayer (2D), mass spectrometry, RBE; assay type: cell-based; details: Homo sapiens, mass spec; for Emax: read-out: 2D Cellular 2HG Production (Mass Spec) RBE (R132S) % EMax; for EC50: read-out: 2D Cellular 2HG Production (Mass Spec) RBE (R132S) EC50
Method: as §1, §2

[9] = test system: RBE (R132S) 3D cellular spheroids; assay: 2-HG production, spheroids (3D), RBE; assay type: cell-based; details: Homo sapiens; 3D spheroid, mass spec
Excerpt: as §3, §4, §5, §6, §7

[10] = read-out: Human Plasma Protein Binding % Bound (converted)
[11] = read-out: Human Plasma Protein Binding % Unbound

Structure (SMILES) | EC50 (IDH2 WT) | Emax (IDH2 WT; read-out: IDH2 % EMax) | half-life at 1 µM [1] | fraction unbound at 4 h, 5 µM [2, 11] | EC50 (hERG channel) | Emax (hERG channel) | Papp A→B at 2 h, 10 µM (in vitro) | Papp B→A at 2 h, 10 µM (in vitro) | EC50 (R172Q mIDH2) | Emax (R172Q mIDH2) | solubility kinetic at 6 h [3] | Papp at 30 min, 0.05 mM [4] | half-life at 1 µM [5] | EC50 (IDH1 WT; IDH1 WT EC50, Biochemical) | Emax (IDH1 WT) | EC50 (human hepatocytes) | Emax at 72 h [6] | half-life at 1 µM [7] | Emax (IDH2 WT; read-out: IDH2 WT % EMax) | Emax (JJ012 (R132G) cells) | further results
CC(C)(O)CNc1nc(Nc2ccnc(C(F)(F)F)c2)nc(-c2cccc(C(F)(F)F)n2)n1 [AG-221, Enasidenib] | > 30 µM | 83.4% | > 120 min | 0.00637 | > 30 µM | 33.2% | 9.41 ×10⁻⁶ cm/s | 23.8 ×10⁻⁶ cm/s | 0.044 µM | 87.2% | 14.2 µM (≈ 6.72 µg/mL) | 1310 ×10⁻⁶ cm/s | > 120 min | 15.1 µM | 57.7% | 18.4 µM | 84.8% | > 120 min | – | – | fraction unbound at 4 h, 5 µM [2, 10]: 0.006; efflux ratio at 2 h, 10 µM (in vitro): 2.54; IC50 (R172Q mIDH2): 0.065 µM
O=C(Nc1cccc(C(F)(F)F)c1)Nc1cc(S(=O)(=O)NC2CC2)ccc1-c1ccsc1 [AGI-6780] | – | 85.2% | 3.1 min | 0.00083 | 25.1 µM | 99.8% | 0.85 ×10⁻⁶ cm/s | 12.5 ×10⁻⁶ cm/s | – | 74.4% | 0.374 µM (≈ 0.18 µg/mL) | 523 ×10⁻⁶ cm/s | 4.6 min | > 30 µM | 8.1% | 21.9 µM | 108% | 4.5 min | – | – | fraction unbound at 4 h, 5 µM [2, 10]: 0.001
CC(C)Nc1nc(Nc2ccccc2)nc(-c2ccccc2)n1 [IDH2-C100] | 6.59 µM | 84.7% | 20.6 min | 0.00011 | > 30 µM | 7.2% | 0.57 ×10⁻⁶ cm/s | 2.34 ×10⁻⁶ cm/s | 0.343 µM | 72.2% | 0.458 µM (≈ 0.14 µg/mL) | 482 ×10⁻⁶ cm/s | 13.5 min | > 30 µM | 11.8% | > 30 µM | 31.5% | 26.7 min | – | – | IC50 (R172Q mIDH2): ~1 µM
CC(C)[C@H]1COC(=O)N1c1ccnc(N[C@@H](C)c2ccc(CN3CCC(F)(F)CC3)cc2)n1 [Novartis 224] | > 30 µM | – | – | – | – | – | – | – | > 30 µM | 3.4% | – | – | – | – | – | – | – | – | 19.4 ± 11.4% | 68% | EC50 (JJ012 (R132G) cells): 0.121 µM; EC50 [8]: 0.098 µM; Emax [8]: 87.2%; Emax (RBE (R132S) cells): 109%; EC50 (RBE (R132S) cells): 0.221 µM; EC50 [9]: 0.412 µM; Emax [9]: 86.3%
CC(C)[C@H]1COC(=O)N1c1ccnc(N[C@@H](C)c2ccc(C(=O)NC3CCCC3)c(Cl)c2)n1 [Novartis 530] | > 30 µM | – | – | – | – | – | – | – | > 30 µM | 3.9% | – | – | – | 3.5 µM | 102 ± 5.8% | – | – | – | 17.3 ± 4.4% | 70.5% | EC50 (JJ012 (R132G) cells): 0.076 µM; EC50 [8]: 0.069 µM; Emax [8]: 92.4%; EC50 (IDH1 WT; IDH1 WT EC50, purified enzyme): 3.51 ± 0.17 µM; Emax (RBE (R132S) cells): 88.2%; EC50 (RBE (R132S) cells): 0.078 µM; EC50 [9]: 0.571 µM; Emax [9]: 86.9%
CC(=O)N1CCN(Cc2ccc([C@H](C)Nc3nccc(N4C(=O)OC[C@@H]4C(C)C)n3)cc2)CC1 [Novartis 556] | > 30 µM | – | – | – | – | – | – | – | – | – | – | – | – | – | 90 ± 7.4% | – | – | – | 20.7 ± 5.4% | – | unbound fraction in human plasma ([2]; 5 µM): ~ 10 % unbound; EC50 (IDH1 WT; IDH1 WT EC50, purified enzyme): 10.5 ± 1.01 µM
CC(C)(C)CC(C)(C)c1cc(Cn2ccnc2)c(O)c(Cn2ccnc2)c1 [Sanofi 1] | > 30 µM | 26.7% | – | – | – | – | – | – | > 30 µM | 3.2% | – | – | – | – | 18.8 ± 2.2% | – | – | – | 19.9 ± 8% | 28.8% | EC50 (JJ012 (R132G) cells): > 30 µM; EC50 [8]: > 30 µM; Emax [8]: 35.3%; Emax (RBE (R132S) cells): 29.3%; EC50 (RBE (R132S) cells): > 30 µM; EC50 [9]: > 30 µM; Emax [9]: 47.3%

Reference: paper PMC5630632, “Assessing inhibitors of mutant isocitrate dehydrogenase using a suite of pre-clinical discovery assays” (Scientific Reports, 2017)
